In test [1] the test system is rhesus macaques (Macaca mulatta). In words: NAL dose-response curve, free-viewing task (fixation frequency to face images). Conditions: intranasal NAL 0.5, 1, 2 mg via nebulizer, P<0.001 for 1 mg over 2 mg and over 0.5 mg. The class given is in vivo. An excerpt:
All of the tested subjects received pharmacological manipulations through a pediatric nebulizer (PARI Baby Nebulizer; PARI Respiratory Equipment) with a cone-shaped facemask. The facemask, designed for canine anesthesia, was fitted entirely over the muzzle area, and the subject breathed freely through the nose for the duration of the dose administration. Before experimental sessions, monkeys were first incrementally habituated to the facemask and then to the nebulizer until they were completely relaxed during the procedure, which typically took about 3-5 d. This habituation procedure was performed with saline (SAL). During both the habituation phase and the testing phase, the animals' heads were restrained to minimize movement and enhance administration reliability. Each of the different pharmacology manipulations tested was diluted to a volume of 2 mL using sterile SAL and was administered over the course of 8-10 min. In addition, experimental sessions were conducted at the same time of day to control for diurnal fluctuations. […]
On the day of the experiment, monkeys were transported in a primate chair from the colony room to the experimental room. […] During the 15-s period, monkeys were free to explore, or not explore, each face presented while an infrared eye-tracking camera continuously recorded their eye positions (Eyelink; SR Research). […]

Test [2] shares this test system. In words: Live gaze interaction task (social attention to a conspecific). It is filed as in vivo. Conditions: for attention to the conspecific (looking at the eyes) following mutual eye contact, compared with SAL: 0.5-3 s after mutual eye contact, permutation test, OTNAL P<0.01, OT, NAL both P>0.05. As to the method:
Nine adult rhesus macaques (Macaca mulatta) were selected for study. The animals (six males and three females) were all housed together in a colony in either pairs or triads. Each animal was kept on a 12-h light/dark cycle and had access to food 24 h each day with controlled access to water during testing. Before testing began, each monkey received a surgically implanted head post (Crist Instruments, Gray Matter Research) for restraining its head while tracking eye positions. At the time of surgery, anesthesia was induced with ketamine hydrochloride (10 mg/kg i.m.) and maintained with isoflurane (1.0-3.0%, to effect). Aseptic procedures were used, and heart rate, respiration rate, blood pressure, expired CO2, and body temperature were monitored throughout the procedure. Monkeys were allowed an additional 30-40 d of recovery after the implant surgery.
All of the tested subjects received pharmacological manipulations through a pediatric nebulizer (PARI Baby Nebulizer; PARI Respiratory Equipment) with a cone-shaped facemask. The facemask, designed for canine anesthesia, was fitted entirely over the muzzle area, and the subject breathed freely through the nose for the duration of the dose administration. Before experimental sessions, monkeys were first incrementally habituated to the facemask and then to the nebulizer until they were completely relaxed during the procedure, which typically took about 3-5 d. […]
Gaze calibration procedures for studying dyadic gaze interactions reported by Dal Monte, et al., 2016, J. Neurophysiol. […] For analysis purposes, the location was determined where the animal was looking on a theoretical screen located further from the actual screen on which the animal was calibrated. With trigonometric corrections, the ROIs were identified and matched based on individual measurements of each monkey's face to the dimension of fixations as measured from the calibration screen. […]
Two animals sat in front of each other with no task constraints while the eye positions of both animals were recorded simultaneously and continuously (FIG. 1A). […]

For a further test, the system named is social partners. The note with it: background statement; cited from earlier work.

Structures are written as SMILES.

Take `C=CCN1CC[C@]23c4c5ccc(O)c4O[C@H]2C(=O)CC[C@@]3(O)[C@H]1C5` [NAL, naloxone]: the “frequency of fixations to the eyes, normalized by SAL” value in test [1] is “maximal effect again clearly occurred following the 1-mg dose”. Further, the “frequency of fixations to faces, normalized by SAL” value in test [1] (inverted U-shaped curve) is “maximal effects clearly occurred following the 1-mg dose”. Moreover, the “attention to the conspecific (looking at the eyes) following mutual eye contact, compared with SAL” value in test [2] is “neither OT nor NAL administered alone had a significant effect”. Also, in the test on social partners, the “solicitation for social contact, such as grooming and proximity” value is “increases solicitation for social contact”.

For `CC[C@H](C)[C@@H]1NC(=O)[C@H](Cc2ccc(O)cc2)NC(=O)[C@@H](N)CSSC[C@@H](C(=O)N2CCC[C@H]2C(=O)N[C@@H](CC(C)C)C(=O)NCC(N)=O)NC(=O)[C@H](CC(N)=O)NC(=O)[C@H](CCC(N)=O)NC1=O` [OT, 1-({(4R,7S,10S,13S,16S,19R)-19-amino-7-(2-amino-2-oxoethyl)-10-(3-amino-3-oxopropyl)-16-(4-hydroxybenzyl)-13-[(1S)-1-methylpropyl]-6,9,12,15,18-pentaoxo-1,2-dithia-5,8,11,14,17-pentaazacycloicosan-4-yl}carbonyl)-L-prolyl-L-leucylglycinamide], the “attention to the conspecific (looking at the eyes) following mutual eye contact, compared with SAL” value in test [2] was “neither OT nor NAL administered alone had a significant effect”. Moreover, in test [2] (OT 24 IU, NAL 1 mg, intranasal, P=0.004 OTNAL over SAL, P=0.069 over NAL, P=0.022 over OT, OT over SAL P=0.059 (marginal)), the “frequency of fixations to the eyes of a conspecific, normalized by SAL” value is listed as “overall increased fixations to the eyes compared with SAL”.

Turning to `CN1CC[C@]23c4c5ccc(O)c4O[C@H]2[C@@H](O)C=C[C@H]3[C@H]1C5` [morphine], the “physical contact between social partners” value in the test with social partners was “decrease physical contact between social partners”.

The values above are taken from patent US11160843B2, “Oxytocin and opioid antagonists for treatment of social dysfunction disorder” (YALE UNIVERSITY, priority 2018, dated 2021).
